Assay results taken from BindingDB's records for doi:10.1021/jm960799i (Dupont Pharmaceuticals, 1997).
Structures can show the parent of a compound that is named as a salt.

biological target: Integrin alpha-IIb/beta-3 (Homo sapiens, UniProt P08514+P05106); assay: In vitro inhibition of ADP-induced platelet aggregation in human platelet rich plasma (hPRP)
Sequence (P05106 27-788 limits assumed): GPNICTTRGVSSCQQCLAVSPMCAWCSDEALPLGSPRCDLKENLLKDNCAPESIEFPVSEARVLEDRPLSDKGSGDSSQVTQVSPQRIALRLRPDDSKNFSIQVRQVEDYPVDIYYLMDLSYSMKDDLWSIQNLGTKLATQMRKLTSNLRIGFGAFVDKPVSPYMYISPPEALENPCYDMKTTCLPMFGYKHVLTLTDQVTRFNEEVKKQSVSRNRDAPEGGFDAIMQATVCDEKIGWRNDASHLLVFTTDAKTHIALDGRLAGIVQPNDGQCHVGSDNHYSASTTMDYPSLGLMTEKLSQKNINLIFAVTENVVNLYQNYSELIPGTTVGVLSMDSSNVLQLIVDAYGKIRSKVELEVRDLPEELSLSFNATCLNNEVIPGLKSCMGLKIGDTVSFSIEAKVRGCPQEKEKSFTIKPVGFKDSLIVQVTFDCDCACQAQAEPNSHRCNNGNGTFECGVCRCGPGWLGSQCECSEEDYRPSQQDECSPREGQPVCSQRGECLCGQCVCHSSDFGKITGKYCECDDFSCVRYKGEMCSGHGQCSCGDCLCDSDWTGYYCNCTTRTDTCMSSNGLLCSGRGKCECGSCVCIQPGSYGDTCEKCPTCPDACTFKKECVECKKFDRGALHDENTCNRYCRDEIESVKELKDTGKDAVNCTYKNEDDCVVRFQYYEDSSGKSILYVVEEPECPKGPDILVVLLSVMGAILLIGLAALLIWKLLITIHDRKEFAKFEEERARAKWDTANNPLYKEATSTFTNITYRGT
Sequence (P08514 32-887 limits assumed): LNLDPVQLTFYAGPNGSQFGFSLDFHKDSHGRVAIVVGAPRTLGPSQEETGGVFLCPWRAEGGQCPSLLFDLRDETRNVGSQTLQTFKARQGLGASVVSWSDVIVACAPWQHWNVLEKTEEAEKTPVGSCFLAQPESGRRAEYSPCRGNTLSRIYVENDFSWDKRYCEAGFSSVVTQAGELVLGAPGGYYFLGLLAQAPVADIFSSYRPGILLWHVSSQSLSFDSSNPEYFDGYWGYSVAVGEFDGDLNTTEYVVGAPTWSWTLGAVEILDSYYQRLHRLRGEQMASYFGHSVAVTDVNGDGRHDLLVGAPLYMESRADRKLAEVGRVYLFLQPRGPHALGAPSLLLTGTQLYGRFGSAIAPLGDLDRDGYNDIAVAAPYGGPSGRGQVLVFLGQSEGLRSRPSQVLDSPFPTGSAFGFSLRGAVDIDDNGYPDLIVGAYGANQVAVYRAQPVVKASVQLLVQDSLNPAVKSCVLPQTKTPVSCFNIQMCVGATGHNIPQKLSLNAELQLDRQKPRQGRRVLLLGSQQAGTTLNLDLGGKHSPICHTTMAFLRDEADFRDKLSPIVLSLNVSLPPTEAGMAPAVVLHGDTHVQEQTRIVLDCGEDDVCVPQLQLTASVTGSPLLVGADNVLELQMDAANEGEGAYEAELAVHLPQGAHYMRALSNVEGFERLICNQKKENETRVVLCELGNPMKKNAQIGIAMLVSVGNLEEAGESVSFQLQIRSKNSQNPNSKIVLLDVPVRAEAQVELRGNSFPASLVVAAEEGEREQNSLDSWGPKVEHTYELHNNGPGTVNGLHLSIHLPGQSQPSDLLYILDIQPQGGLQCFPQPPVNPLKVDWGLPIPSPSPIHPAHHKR
Sequence (P08514 891-1039 limits assumed): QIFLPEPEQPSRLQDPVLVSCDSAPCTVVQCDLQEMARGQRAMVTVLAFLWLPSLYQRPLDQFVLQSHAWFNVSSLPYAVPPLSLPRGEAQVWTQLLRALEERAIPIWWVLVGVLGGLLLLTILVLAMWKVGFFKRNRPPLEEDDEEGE

Compound	IC50 [nM]
N=C(N)c1ccc(C2=NOC(CC(=O)NC[C@H](NC(=O)OCCC(F)(F)F)C(=O)O)C2)cc1 (stereo partly drawn) [(S)-3-{2-[3-(4-Carbamimidoyl-phenyl)-4,5-dihydro-isoxazol-5-yl]-acetylamino}-2-(3,3,3-trifluoro-propoxycarbonylamino)-propionic acid; TFA]	31
N=C(N)c1ccc(C2=NOC(CC(=O)NC[C@H](NC(=O)CCc3ccccc3)C(=O)O)C2)cc1 (stereo partly drawn) [(S)-3-{2-[3-(4-Carbamimidoyl-phenyl)-4,5-dihydro-isoxazol-5-yl]-acetylamino}-2-(3-phenyl-propionylamino)-propionic acid; TFA]	31
COC(=O)[C@H](CNC(=O)CC1CC(c2ccc(C(=N)N)cc2)=NO1)NC(=O)Nc1ccccc1 (stereo partly drawn) [(S)-3-{2-[3-(4-Carbamimidoyl-phenyl)-4,5-dihydro-isoxazol-5-yl]-acetylamino}-2-(3-phenyl-ureido)-propionic acid methyl ester; TFA]	69
CCc1ccc(C(=O)N[C@@H](CNC(=O)CC2CC(c3ccc(C(=N)N)cc3)=NO2)C(=O)O)cc1 (stereo partly drawn) [(S)-3-{2-[3-(4-Carbamimidoyl-phenyl)-4,5-dihydro-isoxazol-5-yl]-acetylamino}-2-(4-ethyl-benzoylamino)-propionic acid; TFA]	49
N=C(N)c1ccc(C2=NOC(CC(=O)NC[C@H](NC(=O)c3ccc4ccccc4c3)C(=O)O)C2)cc1 (stereo partly drawn) [(S)-3-{2-[3-(4-Carbamimidoyl-phenyl)-4,5-dihydro-isoxazol-5-yl]-acetylamino}-2-[(naphthalene-2-carbonyl)-amino]-propionic acid; TFA]	61
CCCCCCOC(=O)N[C@@H](CNC(=O)CC1CC(c2ccc(C(=N)N)cc2)=NO1)C(=O)O (stereo partly drawn) [(S)-3-{2-[3-(4-Carbamimidoyl-phenyl)-4,5-dihydro-isoxazol-5-yl]-acetylamino}-2-hexyloxycarbonylamino-propionic acid; TFA]	41
CC(C)COC(=O)N[C@@H](CNC(=O)CC1CC(c2ccc(C(=N)N)cc2)=NO1)C(=O)O (stereo partly drawn) [(S)-3-{2-[3-(4-Carbamimidoyl-phenyl)-4,5-dihydro-isoxazol-5-yl]-acetylamino}-2-isobutoxycarbonylamino-propionic acid; TFA]	47
CC(C)OC(=O)N[C@@H](CNC(=O)CC1CC(c2ccc(C(=N)N)cc2)=NO1)C(=O)O (stereo partly drawn) [(S)-3-{2-[3-(4-Carbamimidoyl-phenyl)-4,5-dihydro-isoxazol-5-yl]-acetylamino}-2-isopropoxycarbonylamino-propionic acid; TFA]	130
COC(=O)N[C@@H](CNC(=O)CC1CC(c2ccc(C(=N)N)cc2)=NO1)C(=O)O (stereo partly drawn) [(S)-3-{2-[3-(4-Carbamimidoyl-phenyl)-4,5-dihydro-isoxazol-5-yl]-acetylamino}-2-methoxycarbonylamino-propionic acid; TFA]	65
N=C(N)c1ccc(C2=NOC(CC(=O)NC[C@H](NC(=O)OCCc3ccccc3)C(=O)O)C2)cc1 (stereo partly drawn) [(S)-3-{2-[3-(4-Carbamimidoyl-phenyl)-4,5-dihydro-isoxazol-5-yl]-acetylamino}-2-phenethyloxycarbonylamino-propionic acid; TFA]	55
N=C(N)c1ccc(C2=NOC(CC(=O)N[C@@H](CC(=O)O)C(=O)N3CCSCC3)C2)cc1 (stereo partly drawn) [(S)-3-{2-[3-(4-Carbamimidoyl-phenyl)-4,5-dihydro-isoxazol-5-yl]-acetylamino}-4-oxo-4-thiomorpholin-4-yl-butyric acid; TFA]	360
N=C(N)c1ccc(C2=NOC(CC(=O)N[C@H](CC(=O)O)Cc3ccccc3)C2)cc1 (stereo partly drawn) [(S)-3-{2-[3-(4-Carbamimidoyl-phenyl)-4,5-dihydro-isoxazol-5-yl]-acetylamino}-4-phenyl-butyric acid; hydrochloride]	1400
N=C(N)c1ccc(C2=NOC(CC(=O)N[C@@H](CC(=O)O)C(=O)NCCc3ccccc3)C2)cc1 (stereo partly drawn) [(S)-3-{2-[3-(4-Carbamimidoyl-phenyl)-4,5-dihydro-isoxazol-5-yl]-acetylamino}-N-phenethyl-succinamic acid; TFA]	68
N=C(N)c1ccc(C2=NO[C@@H](CC(=O)N[C@@H](CC(=O)O)c3cccnc3)C2)cc1 [(S)-3-{2-[(R)-3-(4-Carbamimidoyl-phenyl)-4,5-dihydro-isoxazol-5-yl]-acetylamino}-3-pyridin-3-yl-propionic acid; TFA]	170
N=C(N)c1ccc(C2=NOC(CC(=O)N[C@@H](CC(=O)O)C(=O)N3CCC4CCC(CC4)C3)C2)cc1 (stereo partly drawn) [(S)-4-(3-Aza-bicyclo[4.2.2]dec-3-yl)-3-{2-[3-(4-carbamimidoyl-phenyl)-4,5-dihydro-isoxazol-5-yl]-acetylamino}-4-oxo-butyric acid; TFA]	210
N=C(N)c1ccc(C2=NOC(CC(=O)N[C@@H](CC(=O)O)C(=O)NCC34CC5CC(CC(C5)C3)C4)C2)cc1 (stereo partly drawn) [(S)-N-Adamantan-1-ylmethyl-3-{2-[3-(4-carbamimidoyl-phenyl)-4,5-dihydro-isoxazol-5-yl]-acetylamino}-succinamic acid; TFA]	95
N=C(N)c1ccc(C2=NOC(CC(=O)N[C@@H](CC(=O)O)C(=O)NC3C4CC5CC(C4)CC3C5)C2)cc1 (stereo partly drawn) [(S)-N-Adamantan-2-yl-3-{2-[3-(4-carbamimidoyl-phenyl)-4,5-dihydro-isoxazol-5-yl]-acetylamino}-succinamic acid; TFA]	140
CCCCN(Cc1ccccc1)C(=O)[C@H](CC(=O)O)NC(=O)CC1CC(c2ccc(C(=N)N)cc2)=NO1 (stereo partly drawn) [(S)-N-Benzyl-N-butyl-3-{2-[3-(4-carbamimidoyl-phenyl)-4,5-dihydro-isoxazol-5-yl]-acetylamino}-succinamic acid; TFA]	180
